We go through twelve compounds from ChEMBL document CHEMBL1201862, “PubChem BioAssay data set” (2004).

Common to all, as to assay: DTP human tumour cell line panel, 48 h
For assay [1], the system named is SN12C.
Assay [2] concerns NCI-H460.
In assay [3] the test system is SF-539.
Assay [4] deals with SW-620.
Assay [5] concerns HOP-92.
Assay [6] relates to NCI-H226.
The subject of assay [7] is MDA-MB-231.
Assay [8] concerns HOP-62.
The subject of assay [9] is NCI/ADR-RES.
The subject of assay [10] is T47D.
Assay [11] has as its system MOLT-4.
Assay [12] deals with CAKI-1.
Assay [13] relates to PC-3.
Assay [14] has as its system HT-29.
Assay [15] relates to COLO 205.
In assay [16] the test system is ACHN.
The test system of assay [17] is A549.
Assay [18] concerns HCC 2998.

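Each compound was tested at five concentrations against cells in 96-well plates for 48 hours. GI50 marks 50% less growth.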 Active and inactive are the calls of the source. No stated cut-off is given here; in the data, active = GI50 up to about 1.1 µM and inactive = higher.

In general, GI50 refers to the concentration giving 50% growth inhibition. Turning to `CO[C@@H]1[C@H](O)CC[C@]2(CO2)[C@H]1[C@@]1(C)O[C@@H]1CC=C(C)C`, the GI50 in assay [1] is 25 µM (inactive); in assay [2] it was 0.617 µM (active); in [3], 134 µM (inactive); in assay [4] it was 107 µM (inactive); in [5], > 200 µM (inactive); in assay [6] it was > 200 µM (inactive). Further, the GI50 is 157 µM (inactive) in assay [7]; 58.2 µM (inactive) in assay [8]; > 200 µM (inactive) in [9]; > 200 µM (inactive) in assay [10]; 80.5 µM (inactive) in [11]; > 200 µM (inactive) in assay [12]. Moreover, the GI50 in assay [13] was > 200 µM (inactive); in [14], > 200 µM (inactive); in [15], 152 µM (inactive); in assay [16], 155 µM (inactive).
Consider `CC1S/C(=N/c2nnc(-c3ccccc3)o2)NC1=O` (stereo not given), for which the GI50 in assay [1] is 36.1 µM (inactive); in [17] it was 37.6 µM (inactive); in assay [3] it was 30.2 µM (inactive); in [4] it was 46 µM (inactive); in [5], > 100 µM (inactive); in assay [6], > 100 µM (inactive). Also, the GI50 in assay [7] is 43.3 µM (inactive); in assay [8] it was 26.7 µM (inactive); in [9], 36.6 µM (inactive); in assay [10] it was 61.1 µM (inactive); in assay [11], 30.5 µM (inactive); in assay [12], > 100 µM (inactive). Moreover, the GI50 is 38.5 µM (inactive) in [13], 27.7 µM (inactive) in assay [14], 47.1 µM (inactive) in assay [15] and 46.5 µM (inactive) in assay [16].
Take `COc1c2cc(C(C)(C)C)cc1CSCc1cc(C(C)(C)C)cc(c1OC)CCCCC2`: the GI50 in assay [1] is > 50 µM (inactive); in [17] it was 37.7 µM (inactive); in [2], 31.6 µM (inactive); in assay [3], 19.6 µM (inactive); in [4] it was > 50 µM (inactive); in assay [6], 20.5 µM (inactive). In addition, the GI50 in [7] was 46.8 µM (inactive); in assay [8] it was > 50 µM (inactive); in assay [9], > 50 µM (inactive); in [10], 30 µM (inactive); in assay [11] it was 29.6 µM (inactive); in assay [13], 22.4 µM (inactive). Further, the GI50 was > 50 µM (inactive) in assay [14], > 50 µM (inactive) in [15], 31.8 µM (inactive) in assay [16] and 29.6 µM (inactive) in [18].
On to `O=C1OS2(OC(=O)c3cccc4cccc2c34)c2ccccc21` (stereo not given), for which the GI50 in assay [1], in assay [17], in assay [3], in assay [4], in [5] and in assay [6] was > 100 µM (inactive) throughout. Moreover, the GI50 in [7], in [8], in [9], in assay [10], in [11] and in assay [12] was > 100 µM (inactive) in each case. Besides, the GI50 in assay [13], in assay [14], in assay [15] and in assay [16] was > 100 µM (inactive) in each case.
Take `Nc1ccc2c(O)cc(O)nc2n1`: the GI50 in assay [1], in [17], in assay [2], in assay [3], in assay [4] and in [5] was > 100 µM (inactive) each time. Further, the GI50 in [6], in [7], in assay [9], in assay [10], in [11] and in assay [12] was > 100 µM (inactive) throughout. In addition, the GI50 in assay [13], in [14], in assay [15] and in assay [16] was > 100 µM (inactive) throughout.
On to `Cc1c(C)c(C)c(-n2[nH]c(=O)n(C)c2=O)c(C)c1C`, for which the GI50 in assay [1], in [17], in assay [2], in assay [3], in assay [4] and in assay [5] was > 100 µM (inactive) throughout. Also, the GI50 in [6], in [7], in assay [8], in assay [9], in assay [10] and in assay [11] was > 100 µM (inactive) throughout. The GI50 in assay [12], in assay [13], in assay [14], in assay [15] and in assay [16] was > 100 µM (inactive) each time.
Consider `O=[N+]([O-])c1ccc2nc3n(c2c1)C(c1c(F)cccc1F)SC3` (stereo not given), for which the GI50 in assay [1] is > 100 µM (inactive); in assay [17] it was > 10 µM (inactive); in [2] it was > 100 µM (inactive); in assay [4], > 100 µM (inactive); in assay [6], > 100 µM (inactive); in assay [7], > 100 µM (inactive). For the same compound, the GI50 was > 100 µM (inactive) in assay [8]; > 100 µM (inactive) in assay [9]; > 10 µM (inactive) in assay [10]; > 100 µM (inactive) in [11]; > 100 µM (inactive) in [13]; > 100 µM (inactive) in assay [14]. Moreover, the GI50 in assay [16] is > 100 µM (inactive).
Turning to `Cc1cc2sc(C)[n+](CCCOS(=O)(=O)[O-])c2cc1C`, the GI50 in assay [1], in assay [17], in [2], in [3], in [4] and in [5] was > 100 µM (inactive) in each case. For the same compound, the GI50 is > 100 µM (inactive) in assay [6]; > 100 µM (inactive) in assay [7]; > 100 µM (inactive) in assay [8]; > 100 µM (inactive) in assay [9]; 58.6 µM (inactive) in assay [10]; 72.4 µM (inactive) in [11]. Also, the GI50 in assay [12], in assay [13], in [14], in assay [15] and in assay [16] was > 100 µM (inactive) each time.
With `COc1ccc(C2SC(=N)Nc3c2c(C)nn3C(=O)c2ccccc2O)cc1OC` (stereo not given), the GI50 is 5.98 µM (inactive) in assay [1]; 3.4 µM (inactive) in assay [17]; 4.68 µM (inactive) in assay [2]; 2.84 µM (inactive) in assay [3]; > 10 µM (inactive) in assay [4]; 1.08 µM (active) in assay [5]. Further, the GI50 in [6] is 4.32 µM (inactive); in assay [7], 7.5 µM (inactive); in [8], 6.92 µM (inactive); in assay [9], 5.52 µM (inactive); in [10], 3.18 µM (inactive); in [11] it was 4.06 µM (inactive). The GI50 was 6.59 µM (inactive) in [12]; 4.5 µM (inactive) in assay [13]; > 10 µM (inactive) in assay [14]; > 10 µM (inactive) in [15]; 3.91 µM (inactive) in assay [16].
Regarding `Cc1[nH]c2ccccc2c1-c1cc(-c2cc(-c3c(C)[nH]c4ccccc34)nc(N)n2)nc(N)n1`, the GI50 in [1], in assay [17], in [2], in assay [3], in [4] and in assay [5] was > 100 µM (inactive) throughout. Moreover, the GI50 in assay [6] is 37.2 µM (inactive); in assay [7] it was > 100 µM (inactive); in assay [8] it was > 100 µM (inactive); in [9], > 100 µM (inactive); in [10] it was > 100 µM (inactive); in [11], > 100 µM (inactive). The GI50 in assay [12], in assay [13], in assay [14], in assay [15] and in assay [16] was > 100 µM (inactive) throughout.
In the case of `O=C(O)C1CCCN1Cc1cc2ccccc2c2ccccc12` (stereo not given), the GI50 in assay [1], in [17], in assay [2], in assay [3], in [4] and in assay [5] was > 100 µM (inactive) each time. For the same compound, the GI50 in [6], in assay [7], in assay [8], in assay [9], in [10] and in [11] was > 100 µM (inactive) each time. Besides, the GI50 in assay [12], in assay [13], in [14], in assay [15] and in [16] was > 100 µM (inactive) each time.
Consider `O=C1C(NS(=O)(=O)c2ccccc2)=C(N(Cc2ccccc2)Cc2ccccc2)C(=O)c2ccccc21`, for which the GI50 in assay [1] was 41.5 µM (inactive); in assay [17], 33 µM (inactive); in assay [2], 36.6 µM (inactive); in assay [3] it was 67.5 µM (inactive); in assay [4], 38.9 µM (inactive); in assay [5], 36.3 µM (inactive). The GI50 in assay [6] was 64.7 µM (inactive); in assay [7] it was > 100 µM (inactive); in assay [8], 41 µM (inactive); in assay [9], 38.5 µM (inactive); in assay [10], 32.1 µM (inactive); in assay [11], 21.1 µM (inactive). Moreover, the GI50 in assay [12] was > 100 µM (inactive); in assay [13], 32.4 µM (inactive); in assay [14], 60.3 µM (inactive); in [15] it was 39.6 µM (inactive); in assay [16] it was 44.1 µM (inactive).
